Key:
Format in all cases: binding
[1] = tested on: unmodified duplex DNA (DNA-1: 5′-TAACAATAA-3′, DNA-2: 5′-TTATTGTTA-3′); experiment: Melting temperature of solution-phase unmodified duplex DNA (no nanoparticles); conditions: for Tm, melting temperature of solution-phase unmodified DNA: 2 uM duplex DNA, 5 uM DNA binder, control (no DNA binder) 19.1; for relative trend in binding strength: from control experiments, Tm of solution-phase unmodified DNA (Table 2)
Experimental: The assay is initiated by mixing NP-1 and NP-2 (1.5 nM each) in a 1:1 molar ratio in 10 mM PBS buffer (pH=7.0, NaCl 0.1 M. The melting temperatures of the nanoassemblies (NP-1 and NP-2) were then determined in the presence of 4′,6-diamidino-2-phenylindole (DAPI), ellipticine (EIPT), Amsacrine (AMSA), daunorubicin (DNR), anthraquinone-2-carboxylic acid (AQ2A), ethidium bromide (EB), and 9-aminoacridine (9-AA) (5 μM), respectively. UV melting profiles were measured by monitoring the absorbance at 520 nm at a scan rate of 0.5° C. min^−1. Melting temperatures were determined by taking the maxima of the first derivative of the melting curves. Control experiments were run by determining the melting temperatures of unmodified duplex DNA (DNA-1: 5′-TAACAATAA-3′, DNA-2: 5′-TTATTGTTA-3′) in the presence of all seven intercalators shown in Table 1.
To determine the Tm of the duplex DNA in the presence of DNA binders, 2 μM duplex DNA and 5 μM DNA binder were combined in 0.3 M NaCl 10 mM PBS. To determine the Tm of the triplex DNA in the presence of DNA binders, 1 μM of each strand and 6 μM of each DNA binder were combined in 0.5 M NaCl 10 mM PBS. UV-vis melting curves were measured on a CARRY 500 spectrophotometer equipped with a circulating bath. The melting process was monitored by measuring the change in extinction at 260 nm. The solutions were stirred continuously with a magnetic stir bar as the solution temperature was increased at a rate of 0.5° C./min. The first derivative generated from the melting curves was used to determine the Tm.

[2] = tested on: triplex DNA on chip surface; experiment: Chip-based scanometric detection of triplex DNA binders (silver enhancement); conditions: varying salt concentrations (0.1 to 0.3 M NaCl), binder 5 μM, DNA-3 150 nM
Experimental: For scanometric detection of duplex or triplex DNA binding molecules, Au nanoparticles (1 nM) and DNA binding molecules (5 μM) in 10 mM PBS buffer of varying NaCl concentrations were added to the microarray slide under hybridization wells (Nanosphere, Inc.). For detection of triplex binders, 150 nM DNA-3 was added. DNA hybridization proceeded for 30 min (for duplex DNA binders) or 1 h (for triplex DNA binders) in a humidity chamber. After hybridization, the slides were washed three times with 0.5 M NaNO3 containing 0.02% Tween 20. The arrays were dried using a benchtop spinner. Silver enhancement solution (Nanosphere, Inc.) was added for Au-NP signal amplification (1 mL total volume/array, 1.5-min development time for duplex DNA binding molecules and 3 min for triplex binding molecules). The reaction was terminated by washing the slides with NANOpure® water and spin-drying. Light-scattering images from the silver-enhanced chips were recorded using the high-resolution Verigene ID system (Nanosphere, Inc.).
Capture strands of synthetic oligonucleotides are patterned on a glass chip using a microarrayer. The DNA chip is then exposed to a solution containing three components: 1) complementary DNA (no nanoparticles), 2) DNA functionalized Au nanoparticles (DNA is non-complementary to the arrayed DNA) and 3) DNA binders, Scheme 4. The complementary solution-phase DNA, called DNA-3 in Scheme 2, hybridizes to the DNA on the chip surface and forms a duplex. The Au nanoparticle-bound DNA has the correct sequence to form a triplex with the surface bound duplex through sequence-specific Hoogsteen, or reverse Hoogsteen, base pairing. The triplex structure is relatively unstable at room temperature and will only form in the presence of triplex DNA binding molecules. The presence of the triplex DNA binding molecules increase the stability of the triplex, immobilizing the Au nanoparticles on the chip surface. The chip was then exposed to silver enhancement solution for further signal enhancement and then imaged using a Verigene ID scanner.
The assay was performed in the presence of two triplex binders, coralyn (CORA) and benzo[e]pyridoindole (BePI), seven duplex DNA binders, 4′,6-diamidino-2-phenylindole (DAPI), ellipticine (EIPT), amsacrine (AMSA), daunorubicin (DNR), anthraquinone-2-carboxylic acid (AQ2A), ethidium bromide (EB), and 9-aminoacridine (9-AA))., and one control (no DNA-3). Similar to the DNA duplex, the formation of the DNA triplex is a reversible process which is affected by both temperature and salt concentration. However, compared to the duplex, the stability of the triplex is much more sensitive to salt concentration. Therefore, to determine the relative binding strength of the triplex DNA binders, the assay was performed at varying salt concentrations, FIG. 7. At 0.3 M NaCl, both the strong (BePI) and weaker (CORA) triplex binders show signal.

[3] = tested on: triplex DNA (NP-1/DNA-3/NP-2); experiment: Colorimetric triplex binder assay: aggregation of NP-1, NP-2 gold nanoparticles and free DNA-3; conditions: NP-1 and NP-2 1.5 nM each, DNA-3 150 nM, binder 5 μM, 10 mM PBS pH 7.0, NaCl 0.5 M, room temperature
Text: This method utilizes the aggregation-induced, red-to-blue color change associated with 13 nm gold (Au) nanoparticles. The assay consists of two sets of gold nanoparticles NP-1 and NP-2, and a free strand of DNA, DNA-3. […] DNA-3 is complementary to NP-1 with a two base dangling end to prevent noncross-linked NP-1 aggregation. When NP-1 and DNA-3 are combined, they form nonaggregate linking duplexes on the nanoparticle surface. […] However, introduction of a strong triplex binding agent, benzo[e]pyridoindole (BePl), stabilizes triplex formation through Hoogsteen-type Py-PaPy triplet base hydrogen bonds and induces nanoparticle aggregation resulting in a concomitant red-to-blue color change due to a red-shifting and dampening of the nanoparticle plasmon resonance (Scheme 1).
This assay is prepared by combining NP-1 and NP-2 (1.5 nM each) in a 1:1 molar ratio in 10 mM PBS buffer (pH=7.0, NaCl 0.5 M) with DNA-3 (150 nM) and BePl (5 μM). […] This stabilization results in a dramatic decrease in absorbance at 520 nm accompanied by a red-to-blue color change. Note that in the absence of DNA-3, NP-1 and NP-2 cannot form aggregates even in the presence of a strong triplex binder (FIG. 1B).
To further investigate the importance of the triplex structure and rule out aggregation due to duplex formation between the nanoparticles, the assay as set out in Example I was performed in the presence of seven additional duplex binders 4′,6-diamidino-2-phenylindole (DAPI), ellipticine (EIPT), amsacrine (AMSA), daunorubicin (DNR), anthraquinone-2-carboxylic acid (AQ2A), ethidium bromide (EB), and 9-aminoaclidine (9-AA)(5 μM).
In general, assay methods that can detect drug candidates by the naked eye, without resorting to any instrumentation, are convenient, and for this reason, an assay that could screen for triplex binders would be of great interest. At present, there are no assays that provide this capability. […] The mixtures of NP-1, NP-2 and DNA-3 containing the control and duplex intercalators remain red in color.

Compound: Nc1c2ccccc2nc2ccccc12 [9-AA, 9-aminoacridine]
- Tm, melting temperature of solution-phase unmodified DNA [1]: 19.3 °C
- scanometric signal [2]: No signal
- nanoparticle aggregation (decrease in absorbance at 520 nm, red-to-blue color change) [3]: no nanoparticle aggregation

Compound: O=C(O)c1ccc2c(c1)C(=O)c1ccccc1C2=O [AQ2A, anthraquinone-2-carboxylic acid]
- Tm, melting temperature of solution-phase unmodified DNA [1]: 19.4 °C
- scanometric signal [2]: No signal
- nanoparticle aggregation (decrease in absorbance at 520 nm, red-to-blue color change) [3]: no nanoparticle aggregation

Compound: N=C(N)c1ccc(-c2cc3ccc(C(=N)N)cc3[nH]2)cc1 [DAPI, 4′,6-diamidino-2-phenylindole]
- Tm, melting temperature of solution-phase unmodified DNA [1]: 27.8 °C
- relative trend in binding strength [1]: DAPI>DNR>EB>other intercalators
- scanometric signal [2]: No signal
- nanoparticle aggregation (decrease in absorbance at 520 nm, red-to-blue color change) [3]: no nanoparticle aggregation

Compound: COc1cccc2c1C(=O)c1c(O)c3c(c(O)c1C2=O)C[C@@](O)(C(C)=O)C[C@@H]3O[C@H]1C[C@H](N)[C@H](O)[C@H](C)O1 [DNR, daunorubicin]
- Tm, melting temperature of solution-phase unmodified DNA [1]: 25.4 °C
- relative trend in binding strength [1]: DAPI>DNR>EB>other intercalators
- scanometric signal [2]: No signal
- nanoparticle aggregation (decrease in absorbance at 520 nm, red-to-blue color change) [3]: no nanoparticle aggregation

Compound: Cc1c2ccncc2c(C)c2c1[nH]c1ccccc12 [EIPT, ellipticine]
- Tm, melting temperature of solution-phase unmodified DNA [1]: 20.5 °C
- scanometric signal [2]: No signal
- nanoparticle aggregation (decrease in absorbance at 520 nm, red-to-blue color change) [3]: no nanoparticle aggregation
